Active and inactive are the calls of the source. The calls are words filed in the database; no cut-off is given here.
Tests used:
[1] = system: HCT-116; experiment: Cytotoxicity against human HCT-116 cells assessed as cell survival measured at 2 uM after 72 hrs by MTS assay relative to control; format: functional; conditions: read-out: Activity
[2] = system: SW480; experiment: Cytotoxicity against human SW480 cells assessed as cell survival measured at 2 uM after 72 hrs by MTS assay relative to control; format: functional; conditions: read-out: Activity
[3] = system: U-87 MG; experiment: Cytotoxicity against human U-87 MG cells assessed as cell survival measured at 2 uM after 72 hrs by MTS assay relative to control; format: functional, U-87MG ATCC; conditions: read-out: Activity
[4] = system: DLD-1; experiment: Cytotoxicity against human DLD-1 cells assessed as cell survival measured at 2 uM after 72 hrs by MTS assay relative to control; format: functional; conditions: read-out: Activity
[5] = system: MDA-MB-231; experiment: Cytotoxicity against human MDA-MB-231 cells assessed as cell survival measured at 2 uM after 72 hrs by MTS assay relative to control; format: functional; conditions: read-out: Activity
[6] = system: MCF7; experiment: Cytotoxicity against human MCF7 cells assessed as cell survival measured at 2 uM after 72 hrs by MTS assay relative to control; format: functional; conditions: read-out: Activity
[7] = system: HCT-116; experiment: Effect on cell cycle progression in thymidine synchronized human HCT-116 cells assessed as increase in MPM2 phosphorylation in presence of 0.2 uM of colchicine at 2 uM by Western blot analysis; format: functional, cell-based
[8] = system: HCT-116; experiment: Effect on cell cycle progression in thymidine synchronized human HCT-116 cells assessed as prevention of cells entering from mitosis in presence of colchicine at 2 uM by Western blot analysis; format: functional, cell-based
[9] = system: HCT-116; experiment: Reduction in mitotic exit in human HCT-116 cells at 2 uM measured upto 24 hrs by flow cytometry; format: functional, cell-based
[10] = system: DLD-1; experiment: Induction of cell cycle arrest in human DLD-1 cells assessed as reduced progression of G2/M phase (T12) at 2 uM measured upto 24 hrs by flow cytometry; format: functional, cell-based
[11] = system: HCT-116; experiment: Induction of apoptosis in human HCT-116 cells assessed as reduction in number of cells at G1 phase at 1 uM measured after 72 hrs by flow cytometry; format: functional, cell-based
[12] = system: HCT-116; experiment: Effect on cell cycle progression in thymidine synchronized human HCT-116 cells assessed as increase in cyclin B1 phosphorylation in presence of 0.2 uM of colchicine at 2 uM by Western blot analysis; format: functional, cell-based
[13] = system: HCT-116; experiment: Induction of apoptosis in human HCT-116 cells assessed as reduction in number of cells at G2/M phase at 1 uM measured after 72 hrs by flow cytometry; format: functional, cell-based
[14] = system: DLD-1; experiment: Induction of cell cycle arrest in human DLD-1 cells assessed as reduced progression of S phase (T8) at 2 uM measured upto 24 hrs by flow cytometry; format: functional, cell-based
[15] = system: MDA-MB-231; experiment: Cytotoxicity against human MDA-MB-231 cells assessed as growth inhibition after 72 hrs by MTS assay; format: functional, cell-based; conditions: MDA-MB-231, 72 h
[16] = system: HCT-116; experiment: Induction of apoptosis in human HCT-116 cells assessed as reduction in number of cells at S phase at 1 uM measured after 72 hrs by flow cytometry; format: functional, cell-based
[17] = system: HCT-116; experiment: Effect on cell cycle progression in thymidine synchronized human HCT-116 cells assessed as increase in histone H3 phosphorylation in presence of 0.2 uM of colchicine at 2 uM by Western blot analysis; format: functional, cell-based
[18] = system: DLD-1; experiment: Cytotoxicity against human DLD1 cells assessed as growth inhibition after 72 hrs by MTS assay; format: functional, cell-based; conditions: DLD-1, 72 h

Compound	viability at 2 µM [1] [%]	viability at 2 µM [2] [%]	viability at 2 µM [3] [%]	viability at 2 µM [4] [%]	viability at 2 µM [5] [%]	viability at 2 µM [6] [%]	Activity [7]	Activity [8]	Activity [9]	Activity [10]	Activity [11]	Activity [12]	Activity [13]	Activity [14]	IC50 [15] [nM]	Activity [16]	Activity [17]	IC50 [18] [nM]
O=C1C(Cl)=C(NCCN2CCOCC2)C(=O)c2ccc(Br)cc21	89.3	105	91.6	75.6	85.4	100												
O=C1C(NCCN2CCOCC2)=C(Cl)C(=O)c2c1cccc2[N+](=O)[O-]	86.3	89.3	84.6	59.9	99.3	88.9												
O=C1C(Cl)=C(NCCN2CCOCC2)C(=O)c2ccccc21	90.1	100	99	97.6	89.8	103												
O=C1C(Cl)=C(NCCN2CCOCC2)C(=O)c2ncccc21	61.8	93.9	82	82	94.4	79.6	Active	Active	Active	Active	inactive	Active	inactive	Active	> 2000	inactive	Active	> 2000
O=C1C(NCCCCCN2CCOCC2)=C(Cl)C(=O)c2ncccc21	13.7	31	49.8	30.5	83.4	73.9									1190			1940
O=C1C(Cl)=C(NCCCCN2CCOCC2)C(=O)c2ncccc21	53.9		81.5	77.3	88.6													
O=C1C(Cl)=C(NCCN2CCOCC2)C(=O)c2ccc(I)cc21	94.4	111	104	82.1	91	104												
Nc1cccc2c1C(=O)C(Cl)=C(NCCN1CCOCC1)C2=O	98	96	95.9	91.3	98	98.9												
O=C1C(NCCCN2CCOCC2)=C(Cl)C(=O)c2ncccc21	2.43	51.6	51.6	34.1	90.4	70.8									1140			1940
O=C1C(Cl)=C(NCCN2CCOCC2)C(=O)c2cc([N+](=O)[O-])ccc21	66	76.8	89.1	54.9	66.8	90.5												
Nc1ccc2c(c1)C(=O)C(Cl)=C(NCCN1CCOCC1)C2=O	88.7		104	90.8	99.7	81.4												

Reference: ChEMBL document CHEMBL5620384, “6-Regioisomeric 5,8-quinolinediones as potent CDC25 inhibitors against colorectal cancers” (Eur J Med Chem, 2023)
